Reference: patent publication US11510886B2, “Metformin amino acid compounds and methods of using the same” (Laboratorios Silancs S.A. DE C.V., priority 2016, dated 2022)
Read-outs that look alike come from different tables or passages of the source.

Tests used:
GLUT4 = assay: GPBP-1 and GLUT4 distribution in C2C12 cells (FIGS. 77 and 78); assay type: cell-based, Mice
Description: FIG. 77. Effects of no treatment, insulin, SLN1, SLN1 and insulin, SLN10, and SLN10 and insulin on GPBP-1 and GLUT-4 distribution in non-fused C2C12 cells after a 30 minute treatment.
FIG. 78. C2C12 cells that expressed GLUT4-GFP constitutively were incubated with SLN1 or SLN10 10 mM, or with the corresponding vehicle (control), and GLUT4 distribution was analyzed by using immunofluorescence and confocal microscopy.

C2C12 myotubes = assay: Glucose in C2C12 myotubes cultured with M1 macrophage conditioned medium; assay type: cell-based, Mice; details: macrophages treated with 10 mM; glucose adjusted to 100 mg/100 mL (FIG. 95)
Description: FIG. 95. C2C12 myotubes, treated with a conditioned RAW264.7 M1 macrophages medium (stimulated with LPS and IFN-γ [M1]), accumulate glucose in the culture medium: SLN compounds reduce the “hyperglycemic” effect of the M1 medium. […]; then, the culture media were collected, and their glucose concentration adjusted to 100 mg/100 mL and used to culture C2C12 myoblasts that had been previously differentiated to myotubes in DMEM supplemented with 2% horse serum for 5 days. The glucose concentration in myotubes was determined at several times with a Glucocard (Arkray). C2C12 myotubes, cultured with conditioned media of non-stimulated (cells) macrophages, or similarly stimulated but not treated with a SLN (M1), were used as controls. The initial glucose levels (time 0) are used as a reference (100%) in each of the series.
[…]. Then the culture media were collected, their glucose concentration adjusted to 100 mg/100 mL and used to culture C2C12 myoblasts that had been previously differentiated to myotubes in DMEM supplemented with 2% horse serum for 5 days. The glucose concentration of the myotube cultures was determined at different times with Glucocard (Arkray). The controls used were the C2C12 cultured with media conditioned with no stimulated macrophages (cells) or with M1 conditioned media. The initial glucose levels (time 0) were used as a reference (100%) in each series.

blood glucose level = assay: Effect of metformin compounds on the glucokinetic profile after oral glucose overload; assay type: in vivo, Rat; details: for Blood glucose level, 3 h post-glucose overload: *p<0.05, **p<0.01 vs vehicle
[1] = terms of European Pharmacopeia 7.0 section 5.11
[2] = rat, in vivo, po, 250 mg/kg
[3] = for Body weight (g) On administration day / Body weight (g) On distribution day / Body weight (g) On first administration day: Mean ± SD; for Body weight (g) On distribution day: before dosing
[4] = STZ-diabetic male rats, mean ± SD; for Absolute body weight, Day −3 (before STZ administration): baseline before STZ and before first TI/RI administration; for Absolute body weight, Day −1 / Absolute body weight, Day −2 (distribution of groups): before first TI/RI administration
[5] = diabetic rats, 14 days daily oral
[6] = system: rat model of streptozotocin-induced diabetes; assay: Blood glucose levels in rat model of streptozotocin-induced diabetes, 14 days oral; details: for Blood glucose levels before TI/RI administration, Day −1: STZ-diabetic rats, before first TI/RI administration, n.d. = all values beyond ULOD of glucometer (600 mg/dl), § n=1, ¢ n=2; for Blood glucose levels before TI/RI administration, Day −1 / Blood glucose levels before TI/RI administration, Day −3 (before STZ administration): mean ± SD; for Blood glucose levels before TI/RI administration, Day −3 (before STZ administration): rats, baseline before STZ and before first TI/RI administration
[7] = system: rat model of streptozotocin-induced diabetes; details: about 18 hours after last administration, fasted; Dunnet test
[8] = system: GPBP, LKB1/STRADα/MO25, AMPK, AS160; assay: In vitro phosphorylation of GPBP with LKB1 complex, AMPK and AS160; details: LKB1 complex without GPBP
[9] = rat, 750 mg/kg referred to metformin base, mean ± SD, *p<0.05 vs vehicle
[10] = rat, 750 mg/kg referred to metformin base, mean ± SD
[11] = Groups L-U, 750 mg/kg, first column of this head
[12] = Groups L-U, 750 mg/kg, second column of this head

| Compound | GLUT4 distribution (GLUT4) | Blood glucose level, 0.25 h post-glucose overload (blood glucose level; [9]) [mg/dL] | Blood glucose level, 0.5 h post-glucose overload (blood glucose level; [10]) [mg/dL] | Blood glucose level, 2 h post-glucose overload (blood glucose level; [10]) [mg/dL] | Blood glucose level, 3 h post-glucose overload (blood glucose level; [10]) [mg/dL] | Blood glucose level, 4 h post-glucose overload (blood glucose level; [9]) [mg/dL] | Blood glucose level, 6 h post-glucose overload (blood glucose level; [10]) [mg/dL] | Blood glucose level, pre-glucose overload (blood glucose level; [9]) [mg/dL] | AUC(0-24) [2] [µg·h/mL] | Cmax [2] [ng/mL] | Metformin base concentration in plasma, 0.5 h post-administration [2] [µg/mL] | Metformin base concentration in plasma, 1 h post-administration [2] [µg/mL] | Metformin base concentration in plasma, 2 h post-administration [2] [µg/mL] | Metformin base concentration in plasma, 4 h post-administration [2] [µg/mL] | Metformin base concentration in plasma, 8 h post-administration [2] [µg/mL] | Metformin base concentration in plasma, 24 h post-administration [2] [µg/mL] | Body weight (g) On administration day ([3]; Groups B-K, 250 mg/kg) [g] | Body weight (g) On distribution day ([3]; Groups B-K, 250 mg/kg) [g] | Body weight (g) On distribution day ([3]; Groups L-U, 750 mg/kg) [g] | Body weight (g) On first administration day [3, 11] [g] | other results |
| --- | --- | --- | --- | --- | --- | --- | --- | --- | --- | --- | --- | --- | --- | --- | --- | --- | --- | --- | --- | --- | --- |
| Metformin glycinate | very intense accumulation of GLUT4 in the perinuclear region and in the plasma membrane |  |  |  |  |  |  |  |  |  |  |  |  |  |  |  |  |  |  |  | glucose concentration in myotubes kept in M1 macrophage-conditioned medium (C2C12 myotubes): kept values at “normoglycemic” levels |
| insulin: insulin, comparator for GLUT4 distribution | GLUT4 distribution to the cell membrane increased |  |  |  |  |  |  |  |  |  |  |  |  |  |  |  |  |  |  |  |  |
| CC(C)[C@H](N)C(=O)O.CN(C)C(=N)NC(=N)N [Metformin valinate, metformin valinate] |  | 102.50 ± 12.07 | 101.00 ± 14.90 | 97.00 ± 14.54 | 93.50 ± 18.91 | 86.50 ± 10.15 | 92.75 ± 5.56 | 90.25 ± 3.86 | 123.05 | 13700 | 8.75 ± 0.50 | 11.56 ± 2.71 | 12.90 ± 2.38 | 13.70 ± 2.55 | 4.79 ± 0.38 | 0.21 ± 0.09 | 193.85 ± 7.65 | 186.67 ± 11.37 | 190.28 ± 6.26 | 206.48 ± 10.52 | Blood glucose level, 1 h post-glucose overload (blood glucose level; rat, 750 mg/kg referred to metformin base, 1 h post-glucose overload, mean ± SD, *p<0.05 vs vehicle): 100.25 ± 15.44 mg/dL; Physical form (hygroscopicity) ([1]; listed as 14. VALINE): Hygroscopic solid; Physical form (hygroscopicity) ([1]; listed as valine): hygroscopic; macroscopic necropsy findings ([3]; 750 mg/kg for five days): small additional lobe; Body weight (g) On first administration day [3, 12]: 194.90 ± 4.71 g; Absolute body weight, Day −3 (before STZ administration) [4]: 233.50 ± 9.71 g; Absolute body weight, Day −1 [4]: 213.90 ± 16.31 g; Absolute body weight, Day −2 (distribution of groups) [4]: 217.43 ± 14.43 g; mortality [5]: found dead on the day 9 of study; Blood glucose levels before TI/RI administration, Day −1 [6]: 592.00^§ ± n.d.^§ mg/dL; blood glucose levels 2 hours after administration on day 2 vs diabetic animals treated with vehicle ([6]; diabetic rats, 250 mg/kg as metformin base): significantly lower blood glucose levels; Blood glucose levels before TI/RI administration, Day −3 (before STZ administration) [6]: 120.00 ± 1.73 mg/dL; plasma glucose levels at the time of sacrifice [7]: significantly higher |
| CN(C)C(=N)N=C(N)N [metformin, 3-(diaminomethylidene)-1,1-Dimethylguanidine] | levels lower than insulin |  |  |  |  |  |  |  |  |  |  |  |  |  |  |  |  |  |  |  | LKB1 autophosphorylation and STRADα phosphorylation [8]: trigger a discrete LKB1 autophosphorylation |
| CN(C)C(=N)NC(=N)N.NC(=O)C[C@H](N)C(=O)O [Metformin asparaginate, metformin asparaginate] |  | 94.50 ± 24.31 | 93.75 ± 19.14 | 80.00 ± 10.68 | 86.50 ± 2.65 | 87.00 ± 8.60 | 78.50 ± 16.03 | 86.50 ± 14.62 | 153.76 | 16270 | 10.72 ± 2.33 | 8.40 ± 1.12 | 9.74 ± 1.24 | 16.27 ± 2.89 | 7.56 ± 1.49 | 0.39 ± 0.13 | 191.98 ± 10.26 | 186.85 ± 11.32 | 188.40 ± 10.50 | 201.60 ± 5.61 | blood glucose level vs vehicle, after the oral glucose overload (blood glucose level; 750 mg/kg for five days, glucose 3 g/kg, isolated time points 0.25-4 hours, Dunn's test): statistically significant decreases; Physical form (hygroscopicity) [1]: Deliquescent; Body weight (g) On first administration day [3, 12]: 196.93 ± 10.40 g; Absolute body weight, Day −3 (before STZ administration) [4]: 233.47 ± 15.23 g; Absolute body weight, Day −1 [4]: 209.73 ± 12.66 g; Absolute body weight, Day −2 (distribution of groups) [4]: 214.13 ± 12.67 g; Blood glucose levels before TI/RI administration, Day −1 [6]: 573.00^§ ± n.d.^§ mg/dL; Blood glucose levels before TI/RI administration, Day −3 (before STZ administration) [6]: 116.33 ± 5.51 mg/dL; plasma glucose levels at the time of sacrifice [7]: significantly higher |
